Results reported in patent publication US20250101019A1 (Insilico Medicine IP Limited, priority 2022, published 2025).

How the values were obtained:
ENPP1 [1] = target: T1, ENPP1 (Homo sapiens (Human), UniProt P22413); experiment: cGAMP-Glo enzymatic assay (2′3′-cGAMP substrate, AMP-Glo readout); assay type: biochemical; settings: substrate 2′3′-cGAMP; 25° C. for 60 min; 50 mM Tris pH 8.8
Procedure: (§1) Example A: Enzymatic Assay
(§2) • 1. Diluted compounds in DMSO by hand for 11 points, 3 folds dilution. Then transferred 0.02 μL compounds to 384 assay plate by ECHO. • 2. Added 2 μL specified concentration of ENPP1 to 384 assay plate. Centrifuged 1000 RPM for 1 min. • 3. Added 2 μL specified concentration of ATP to the assay plate. Centrifuged 1000 RPM for 1 min. • 4. Incubated at 25° C. for 60 min. • 5. Added 4 μL AMP-Glo Reagent to the assay plates. • 6. Centrifuged 1000 RPM for 1 min, incubate at 25° C. for 1 hours. • 7. Added 8 μL Kinase Detection Reagent to the assay plates. • 8. Centrifuged 1000 RPM for 1 min, incubated at 25° C. for 1 hours. The final assay reaction mixture contained a buffer of 50 mM Tris pH 8.8, 250 mM NaCl and 0.1% BSA • 9. Read on Envision for US LUM as RLU. • 10. Analyzed the raw data using the equation (V. Data analysis). cGAMP-Glo Assay: • 1. Diluted compounds in DMSO by hand for 11 points, 3 folds dilution. Then transferred 0.02 μL compounds to 384 assay plate by ECHO. • 2. Added 2 μL specified concentration of ENPP1 to 384 assay plate, centrifuged 1000 RPM for 1 min. • 3. Added 2 μL specified concentration of 2′3′-cGAMP to the assay plate, centrifuged 1000 RPM for 1 min. • 4. Incubated at 25° C. for 60 min. • 5. Added 4 μL AMP-Glo Reagent to the assay plates. • 6. Centrifuged 1000 RPM for 1 min, incubated at 25° C. for 1 hours. • 7. Added 8 μL Kinase Detection Reagent to the assay plates. • 8. Centrifuged 1000 RPM for 1 min, incubate at 25° C. for 1 hours. The final assay reaction mixture contained a buffer of 50 mM Tris pH 8.8, 250 mM NaCl and 0.1% BSA • 9. Read on Envision for US LUM as RLU. • 10. Analyzed the raw data using the equation (V. Data analysis).

ENPP1 [2] = target: T1, ENPP1; experiment: ATP-Glo enzymatic assay (ATP substrate, AMP-Glo readout); assay type: biochemical; settings: 25° C. for 60 min, 50 mM Tris pH 8.8
Procedure: as §1, §2

T1 sequence (P22413 whole entry, species assumed): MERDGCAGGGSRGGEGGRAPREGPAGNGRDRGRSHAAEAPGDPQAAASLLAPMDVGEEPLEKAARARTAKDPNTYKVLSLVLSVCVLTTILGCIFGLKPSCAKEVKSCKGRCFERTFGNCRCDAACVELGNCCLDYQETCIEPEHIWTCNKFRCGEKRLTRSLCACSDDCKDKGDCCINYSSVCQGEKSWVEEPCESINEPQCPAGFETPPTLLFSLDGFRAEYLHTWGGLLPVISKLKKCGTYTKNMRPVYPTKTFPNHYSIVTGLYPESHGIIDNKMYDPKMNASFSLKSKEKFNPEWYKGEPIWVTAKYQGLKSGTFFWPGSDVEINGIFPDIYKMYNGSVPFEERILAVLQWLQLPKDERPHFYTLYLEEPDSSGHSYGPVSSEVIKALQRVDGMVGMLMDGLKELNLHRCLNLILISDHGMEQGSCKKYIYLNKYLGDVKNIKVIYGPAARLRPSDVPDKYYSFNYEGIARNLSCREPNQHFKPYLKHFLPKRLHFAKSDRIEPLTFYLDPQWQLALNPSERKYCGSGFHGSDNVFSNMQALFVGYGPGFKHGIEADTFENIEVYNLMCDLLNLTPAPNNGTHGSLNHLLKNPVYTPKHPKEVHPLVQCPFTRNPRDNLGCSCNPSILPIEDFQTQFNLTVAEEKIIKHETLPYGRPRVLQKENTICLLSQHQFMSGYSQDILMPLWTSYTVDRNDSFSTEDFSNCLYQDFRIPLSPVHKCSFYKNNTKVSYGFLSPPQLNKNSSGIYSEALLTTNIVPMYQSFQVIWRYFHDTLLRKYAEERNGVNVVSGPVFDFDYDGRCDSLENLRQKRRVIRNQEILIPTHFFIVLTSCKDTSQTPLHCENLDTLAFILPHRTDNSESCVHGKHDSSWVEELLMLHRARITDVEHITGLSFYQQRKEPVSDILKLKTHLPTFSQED

| Compound | IC50 (ENPP1 [1]) [nM] | IC50 (ENPP1 [2]) [nM] |
| --- | --- | --- |
| Cc1ncc2c(C)cn(Cc3c(F)cc(S(N)(=O)=O)cc3F)c2c1-c1ccn(C(F)(F)F)n1 [Example 18, 4-((3,6-dimethyl-7-(1-(trifluoromethyl)-1H-pyrazol-3-yl)-1H-pyrrolo[3,2-c]pyridin-1-yl)methyl)-3,5-difluorobenzenesulfonamide] | 10 to 100 | 100 to 1000 |
| COc1ncc2nc(C(F)F)n(Cc3ncc(S(N)(=O)=O)cc3F)c2c1-c1ccccc1 [Example 76, 6-((2-(difluoromethyl)-6-methoxy-7-phenyl-1H-imidazo[4,5-c]pyridin-1-yl)methyl)-5-fluoropyridine-3-sulfonamide] | < 1 | < 1 |
| COc1ncc2c(C)cn(Cc3ccc(S(N)(=O)=O)cc3)c2c1-c1ccccn1 [Example 13, 4-((6-methoxy-3-methyl-7-(pyridin-2-yl)-1H-pyrrolo[3,2-c]pyridin-1-yl)methyl)benzenesulfonamide] | 1 to 10 | 1 to 10 |
| Cc1nc2cnc(OC(F)F)c(-c3ccccc3)c2n1Cc1ccc(S(N)(=O)=O)cc1 [Example 33, 4-((6-(difluoromethoxy)-2-methyl-7-phenyl-1H-imidazo[4,5-c]pyridin-1-yl)methyl)benzenesulfonamide] | < 1 | < 1 |
| [2H]C([2H])([2H])Oc1ncc2nc(C(F)F)n(Cc3ncc(S(N)(=O)=O)cc3F)c2c1-c1ccccc1 [Example 86, 6-((2-(difluoromethyl)-6-(methoxy-d3)-7-phenyl-1H-imidazo[4,5-c]pyridin-1-yl)methyl)-5-fluoropyridine-3-sulfonamide] | < 1 | < 1 |
| Cc1nc2cncc(-c3ccccc3)c2n1Cc1c(F)cc(S(N)(=O)=O)cc1F [Example 43, 3,5-difluoro-4-((2-methyl-7-phenyl-1H-imidazo[4,5-c]pyridin-1-yl)methyl)benzenesulfonamide] | < 1 | < 1 |
| COc1ncc2c(c1-c1ccccc1)n(Cc1ccc(S(N)(=O)=O)cn1)c(=O)n2C [Example 82, 6-((6-methoxy-3-methyl-2-oxo-7-phenyl-2,3-dihydro-1H-imidazo[4,5-c]pyridin-1-yl)methyl)pyridine-3-sulfonamide] | < 1 | < 1 |
| Cc1ncc2nc(C(F)F)n(Cc3c(F)cc(S(N)(=O)=O)cc3F)c2c1-c1ccccc1 [Example 38, 4-((2-(difluoromethyl)-6-methyl-7-phenyl-1H-imidazo[4,5-c]pyridin-1-yl)methyl)-3,5-difluorobenzenesulfonamide] | < 1 | < 1 |
| Cc1ncc2nc(C3CC3)n(Cc3ccc(S(N)(=O)=O)nc3)c2c1-c1ccccc1 [Example 54, 5-((2-cyclopropyl-6-methyl-7-phenyl-1H-imidazo[4,5-c]pyridin-1-yl)methyl)pyridine-2-sulfonamide] | < 1 | < 1 |
| COc1ncc2nc(C)n(Cc3ccc(S(N)(=O)=O)cc3F)c2c1-c1ccccc1 [Example 25] | < 1 | < 1 |
| Cc1ncc2nc(C)n(Cc3c(F)cc(S(N)(=O)=O)cc3F)c2c1-c1ccccc1F [Example 44, 3,5-difluoro-4-((7-(2-fluorophenyl)-2,6-dimethyl-1H-imidazo[4,5-c]pyridin-1-yl)methyl)benzenesulfonamide] | < 1 | < 1 |
| Cc1ncc2nc(C(F)F)n(Cc3ncc(S(N)(=O)=O)cc3F)c2c1-c1ccccc1 [Example 72, 6-((2-(difluoromethyl)-6-methyl-7-phenyl-1H-imidazo[4,5-c]pyridin-1-yl)methyl)-5-fluoropyridine-3-sulfonamide] | < 1 | < 1 |
| COc1ncc2c(C)cn(Cc3ccc(S(N)(=O)=O)cc3)c2c1-c1ccc(F)cc1 [Example 12] | 10 to 100 | 10 to 100 |
| [2H]C([2H])([2H])c1nc2cnc(C)c(-c3ccccc3)c2n1Cc1c(F)cc(S(N)(=O)=O)cc1F [Example 42, 3,5-difluoro-4-((6-methyl-2-(methyl-d3)-7-phenyl-1H-imidazo[4,5-c]pyridin-1-yl)methyl)benzenesulfonamide] | < 1 | < 1 |
| Cc1ccccc1-c1c(C)ncc2ncn(Cc3c(F)cc(S(N)(=O)=O)cc3F)c12 [Example 28, 3,5-difluoro-4-((6-methyl-7-(o-tolyl)-1H-imidazo[4,5-c]pyridin-1-yl)methyl)benzene sulfonamide] | 10 to 100 | 10 to 100 |
| Cc1ncc2ccn(Cc3ccc(NS(N)(=O)=O)cc3)c2c1-c1ccn(C)n1 [Example 2, N-(4-((6-methyl-7-(1-methyl-1H-pyrazol-3-yl)-1H-pyrrolo[3,2-c]pyridin-1-yl)methyl)phenyl) sulfamide] | 100 to 1000 | > 1000 |
| Cc1ncc2ccn(Cc3ccc(S(N)(=O)=O)cc3)c2c1-c1ccccc1 [Example 15, 4-((6-methyl-7-phenyl-1H-pyrrolo[3,2-c]pyridin-1-yl)methyl)benzene sulfonamide] | < 1 | < 1 |
| Cc1ncc2nc(C)n(Cc3ccc(S(N)(=O)=O)nc3)c2c1-c1ccccc1 [Example 66, 5-((2,6-dimethyl-7-phenyl-1H-imidazo[4,5-c]pyridin-1-yl)methyl)pyridine-2-sulfonamide] | < 1 | < 1 |
| 4-((6-cyano-2-methyl-7-phenyl-1H-imidazo[4,5-c]pyridin-1-yl)methyl)benzenesulfonamide [Example 41] | < 1 | < 1 |
| Cc1ncc2nc(CC3CC3)n(Cc3c(F)cc(S(N)(=O)=O)cc3F)c2c1-c1ccccc1 [Example 51, 4-((2-(cyclopropylmethyl)-6-methyl-7-phenyl-1H-imidazo[4,5-c]pyridin-1-yl)methyl)-3,5-difluorobenzenesulfonamide] | < 1 | < 1 |

Next, values leading:

| IC50 (ENPP1 [1]) [nM] | IC50 (ENPP1 [2]) [nM] | Compound |
| --- | --- | --- |
| < 1 | < 1 | [2H]C([2H])([2H])Oc1ncc2nc(C)n(Cc3ccc(S(N)(=O)=O)cc3)c2c1-c1ccccc1 [Example 84, 4-((6-(methoxy-d3)-2-methyl-7-phenyl-1H-imidazo[4,5-c]pyridin-1-yl)methyl)benzenesulfonamide] |
| < 1 | < 1 | COc1ncc2c(c1-c1ccccc1)n(Cc1ccc(S(N)(=O)=O)cc1)c(=O)n2C [Example 19, 4-[(6-methoxy-3-methyl-2-oxo-7-phenylimidazo[5,4-c]pyridin-1-yl)methyl]benzene-1-sulfonamide] |
| < 1 | < 1 | CCc1ncc2nc(C)n(Cc3c(F)cc(S(N)(=O)=O)cc3F)c2c1-c1ccccc1 [Example 48, 4-((6-ethyl-2-methyl-7-phenyl-1H-imidazo[4,5-c]pyridin-1-yl)methyl)-3,5-difluorobenzenesulfonamide] |
| < 1 | < 1 | Cc1ncc2c(C)cn(Cc3ccc(S(N)(=O)=O)cc3)c2c1-c1ccccc1 [Example 16, 4-((3,6-dimethyl-7-phenyl-1H-pyrrolo[3,2-c]pyridin-1-yl)methyl)benzene sulfonamide] |
| < 1 | < 1 | COc1ncc2nc(C(F)(F)F)n(Cc3ncc(S(N)(=O)=O)cc3F)c2c1-c1ccccc1 [Example 78, 5-fluoro-6-((6-methoxy-7-phenyl-2-(trifluoromethyl)-1H-imidazo[4,5-c]pyridin-1-yl)methyl)pyridine-3-sulfonamide] |
| < 1 | < 1 | COc1ncc2nc(C)n(Cc3ccc(S(N)(=O)=O)c(F)c3)c2c1-c1ccccc1 [Example 36, 2-fluoro-4-((6-methoxy-2-methyl-7-phenyl-1H-imidazo[4,5-c]pyridin-1-yl)methyl)benzenesulfonamide] |
| < 1 | 1 to 10 | COc1ncc2c(C)cn(Cc3c(F)cc(S(N)(=O)=O)cc3F)c2c1-c1ccn(C)n1 [Example 4, 3,5-difluoro-4-((6-methoxy-3-methyl-7-(1-methyl-1H-pyrazol-3-yl)-1H-pyrrolo[3,2-c]pyridin-1-yl)methyl)benzene sulfonamide] |
| < 1 | < 1 | COc1ncc2c(c1-c1ccccc1)n(Cc1c(F)cc(S(N)(=O)=O)cc1F)c(=O)n2C [Example 56, 3,5-difluoro-4-((6-methoxy-3-methyl-2-oxo-7-phenyl-2,3-dihydro-1H-imidazo[4,5-c]pyridin-1-yl)methyl)benzenesulfonamide] |
| < 1 | < 1 | Cc1ncc2nc(C3CC3)n(Cc3ccc(S(N)(=O)=O)cn3)c2c1-c1ccccc1 [Example 53, 6-((2-cyclopropyl-6-methyl-7-phenyl-1H-imidazo[4,5-c]pyridin-1-yl)methyl)pyridine-3-sulfonamide] |
